Source: US11986557B2, “Stealth nanoparticles” (HOWARD UNIVERSITY, priority 2018, dated 2024)

Columns and labels:
[1] = tested on: MCF7; assay: In vitro cytotoxicity studies, MCF7; assay type: cell-based, human
Method: (§1) In vitro cytotoxicity studies were conducted to determine the cytotoxic effect of paclitaxel (as a free drug/not in nanoparticle), 17AAG (free drug), paclitaxel+17AAG combination (as free drugs), and paclitaxel+17AAG combination loaded nanoparticles on two human breast cancer cell lines, SKBR3 and MCF7.
(§2) In preparation of the drug combination treatment, one part of each drug was halved and combined, such that each drug in the combination treatment contained half the concentration of their single drug counterparts. This means that the paclitaxel concentration in the combination treatment is 50% of the paclitaxel (single drug) treatment. In other words, the ratio of the concentration in the single drug to its respective concentration in the combination is 2:1. Also, the drug concentration ratio within the combination (paclitaxel: 17AAG) was approximately 1:1.
(§3) For 5 days of assaying, three plates were treated for each day. The first was treated with paclitaxel solution (single drug) and paclitaxel/17AAG combination solution and second with 17AAG solution (single drug) and paclitaxel/17AAG combination solution. The last plate was treated with the combination drug loaded nanoparticle solution and paclitaxel/17AAG combination solution (free drug).

[2] = tested on: SKBR3; assay: In vitro cytotoxicity studies, SKBR3; assay type: cell-based, human
Method: as §1, §2, §3

[3] = pH 5.0 versus pH 7.4; cited from earlier work

Row | SMILES | Cytotoxic effect at low concentrations [1] | Cytotoxic effect at low concentrations [2] | Hydrolysis rate [3]
1 | C=CCNC1=C2C[C@@H](C)C[C@H](OC)[C@H](O)[C@@H](C)/C=C(\C)[C@H](OC(N)=O)[C@@H](OC)/C=C\C=C(/C)C(=O)NC(=CC1=O)C2=O [Formulation 17AAG, 17 allylamino, 17 demethoxygeldanamycin] | did not show any significant cytotoxic effect | did not show any significant cytotoxic effect | –
2 | C=C(C)C(=O)OCCOC(OCCOC(=O)C(=C)C)c1ccc(OC)cc1OC [di (2-methacryloyloxyethoxy)-[2,4-dimethoxyphenyl]methane] | – | – | hydrolyzes much faster at pH 5.0 than at pH 7.4
